The results in this text go back to patent US20260083708A1, “IL-17 MODULATORS AND USES THEREOF” (NNOCARE PHARMA INC., priority 2024, published 2026).

The structures appear in SMILES notation.

In experiment [1] the test system is IL-17AA-induced IL-17 signaling pathway. In words: Inhibition of IL-17AA-induced IL-17 signaling pathway in HEK-Blue IL-17 reporter cells (SEAP). It is filed as cell-based. The following applies: Homo sapiens; HEK-Blue IL-17 cells, IL-17AA 2.5 ng/mL, 20 hours; read-out: IC50 for Inhibiting IL-AA Signaling. In a few lines: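 HEK-Blue IL-17 cells (HEK293 expressing human IL-17RA/RC, ACT1 and NF-κB/AP-1-driven SEAP), 10,000/well, pre-incubated with compound (serial dilution from 10 μM) for 1 h at 37 °C, then stimulated with IL-17AA at 2.5 ng/mL final for 20 h. SEAP in supernatant read with Quanti-Blue at 620 nm; IC50 by 4-parameter fit.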

For a further experiment, the target named is T1, IL-17AA and IL-17RA (Homo sapiens, UniProt Q16552).
T1 construct: purchased Sino Biological 12047-H07B (IL-17AA); 10895-H02H (IL-17RA)
T1 sequence (Q16552 24-155): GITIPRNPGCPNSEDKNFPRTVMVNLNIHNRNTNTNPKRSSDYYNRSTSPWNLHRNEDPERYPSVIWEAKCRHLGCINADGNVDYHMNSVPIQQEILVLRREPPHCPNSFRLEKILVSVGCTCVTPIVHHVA
In words: Competitive inhibition of human IL-17AA and IL-17RA binding (HTRF). The following applies: recombinant IL-17AA (His-tag) and IL-17RA (hFc-tag); read-out: IC50 for Inhibiting IL-AA/IL-RA Binding. The method, boiled down:
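His-IL-17AA (1 nM) premixed 1 h with anti-His-Tb (0.4 nM), and Fc-IL-17RA (1 nM) with anti-IgG-d2 (1 μg/mL); these are pre-mix levels. Compounds, diluted from 10 μM, preincubated 2 h RT with IL-17AA mix; IL-17RA mix then added, 20 min. 665/615 ratio vs no-compound and no-IL-17AA controls; IC50 by 4-parameter fit.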
(In general: TR-FRET usually uses a lanthanide donor and a delayed reading to cut background.)

Experiment [2] deals with IL-17AF-induced IL-17 signaling pathway. In words: Inhibition of IL-17AF-induced IL-17 signaling pathway. The following applies: Homo sapiens; IL-17AF used instead of IL-17AA; read-out: IC50 for Inhibiting IL-AF Signaling. It is filed as cell-based. The method, boiled down: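 HEK293-derived HEK-Blue IL-17 cells (IL-17RA/RC, ACT1, NF-κB/AP-1-driven SEAP) preincubated 1 hour at 37° C with serially diluted compound from 10 μM, then stimulated with IL-17AF for 20 hours. SEAP read colorimetrically at 620 nm; IC50 from 4-parameter fit of % inhibition.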

Regarding `CCC(=O)N[C@@H](c1ncnn1CC1CC1)[C@@H](C)c1ccc(NC(=O)[C@@H](NC(=O)c2ccnn2CC)C2CCC3(CC2)CC(F)(F)C3)c(F)c1` [Compound 78, N-((S)-2-((4-((1R,2S)-1-(1-(cyclopropylmethyl)-1H-1,2,4-triazol-5-yl)-1-propionamidopropan-2-yl)-2-fluorophenyl)amino)-1-(2,2-difluorospiro[3.5]nonan-7-yl)-2-oxoethyl)-1-ethyl-1H-pyrazole-5-carboxamide], the IC50 in experiment [1] amounted to 376 nM; at IL-17AA and IL-17RA, 48 nM; in experiment [2] it was 517 nM.
In the same order, the values of `[2H]C([2H])([2H])C([2H])([2H])C(=O)N[C@@H](c1ncnn1CC1CC1)[C@@H](C)c1ccc(NC(=O)[C@@H](NC(=O)c2nonc2C)C(C2CC2)C2CC2)c(F)c1` [Compound 75, N-((S)-1,1-dicyclopropyl-3-((4-((1R,2S)-1-(1-(cyclopropylmethyl)-1H-1,2,4-triazol-5-yl)-1-(propanamido-2,2,3,3,3-d5)propan-2-yl)-2-fluorophenyl)amino)-3-oxopropan-2-yl)-4-methyl-1,2,5-oxadiazole-3-carboxamide] are 6.1 nM, 1.1 nM and 8.1 nM.
As for `CCn1nccc1C(=O)N[C@H](C(=O)Nc1ccc([C@H](C)[C@H](NC(=O)COC)c2nncn2CC2CC2)cc1F)C(C1CC1)C1CC1` [Compound 37, N-((S)-1,1-dicyclopropyl-3-((4-((1S,2S)-1-(4-(cyclopropylmethyl)-4H-1,2,4-triazol-3-yl)-1-(2-methoxyacetamido)propan-2-yl)-2-fluorophenyl)amino)-3-oxopropan-2-yl)-1-ethyl-1H-pyrazole-5-carboxamide], the IC50 was 74 nM in experiment [1]; 125 nM on IL-17AA and IL-17RA; 232 nM in experiment [2].
Turning to `[2H]C([2H])([2H])n1nccc1C(=O)N[C@H](C(=O)Nc1ccc([C@H](C)[C@@H](NC(=O)CC)c2ncn(CC3CC3)n2)cc1F)C(C1CC1)C1CC1` [Compound 43, N-((S)-1,1-dicyclopropyl-3-((4-((1R,2S)-1-(1-(cyclopropylmethyl)-1H-1,2,4-triazol-3-yl)-1-propionamidopropan-2-yl)-2-fluorophenyl)amino)-3-oxopropan-2-yl)-1-(methyl-d3)-1H-pyrazole-5-carboxamide], the IC50 in experiment [1] stood at 16 nM; at IL-17AA and IL-17RA it was 9.4 nM; in experiment [2] it was 27 nM.
In the same order, the values of `CCn1nccc1C(=O)N[C@H](C(=O)Nc1ccc([C@H](C)[C@@H](NC(=O)COC)c2ncnn2CC(C)C)cc1F)C(C1CC1)C1CC1` [Compound 36, N-((S)-1,1-dicyclopropyl-3-((2-fluoro-4-((1R,2S)-1-(1-isobutyl-1H-1,2,4-triazol-5-yl)-1-(2-methoxyacetamido)propan-2-yl)phenyl)amino)-3-oxopropan-2-yl)-1-ethyl-1H-pyrazole-5-carboxamide] are 2 nM, 3.7 nM and 2.2 nM.
For the compound `CCn1nccc1C(=O)N[C@H](C(=O)Nc1ccc([C@H](C)[C@@H](NC(=O)COC)c2ncn(CC3CC3)n2)cc1F)C(C1CC1)C1CC1` [Compound 20, N-((S)-1,1-dicyclopropyl-3-((4-((1R,2S)-1-(1-(cyclopropylmethyl)-1H-1,2,4-triazol-3-yl)-1-(2-methoxyacetamido)propan-2-yl)-2-fluorophenyl)amino)-3-oxopropan-2-yl)-1-ethyl-1H-pyrazole-5-carboxamide], the IC50 was 14 nM in experiment [1]; 20 nM at IL-17AA and IL-17RA; 50 nM in experiment [2].
Regarding `[2H]C([2H])([2H])n1nccc1C(=O)N[C@H](C(=O)Nc1ccc([C@H](C)[C@@H](NC(=O)CC)c2ncnn2CC2CC2)cc1F)C(C1CC1)C1CC1` [Compound 62, N-((S)-1,1-dicyclopropyl-3-((4-((1R,2S)-1-(1-(cyclopropylmethyl)-1H-1,2,4-triazol-5-yl)-1-propionamidopropan-2-yl)-2-fluorophenyl)amino)-3-oxopropan-2-yl)-1-(methyl-d3)-1H-pyrazole-5-carboxamide], the IC50 in experiment [1] came to 6.5 nM; on IL-17AA and IL-17RA, 2.6 nM; in experiment [2] it was 18.4 nM.
In the same order, the values of `CCn1nccc1C(=O)N[C@H](C(=O)Nc1ccc([C@H](C)[C@@H](NC(=O)CN2CCC2)c2ncnn2CC2CC2)cc1F)C(C1CC1)C1CC1` [Compound 51, N-((S)-1-((4-((1R,2S)-1-(2-(azetidin-1-yl)acetamido)-1-(1-(cyclopropylmethyl)-1H-1,2,4-triazol-5-yl)propan-2-yl)-2-fluorophenyl)amino)-3,3-dicyclopropyl-1-oxopropan-2-yl)-1-ethyl-1H-pyrazole-5-carboxamide] are 178 nM, 50 nM and 211 nM.
In the same order, the values of `COCC(=O)N[C@@H](c1nnnn1CC1CC1)[C@@H](C)c1ccc(NC(=O)[C@@H](NC(=O)c2nonc2C)C(C2CC2)C2CC2)c(F)c1` [Compound 54, N-((S)-1,1-dicyclopropyl-3-((4-((1R,2S)-1-(1-(cyclopropylmethyl)-1H-tetrazol-5-yl)-1-(2-methoxyacetamido)propan-2-yl)-2-fluorophenyl)amino)-3-oxopropan-2-yl)-4-methyl-1,2,5-oxadiazole-3-carboxamide] are 3.6 nM, 3 nM and 16 nM.
In the same order, the values of `CCn1nccc1C(=O)N[C@H](C(=O)Nc1ccc([C@H](C)[C@@H](NC(=O)COC)c2ncnn2CCN2CCN(C)CC2)cc1F)C(C1CC1)C1CC1` [Compound 52, N-((S)-1,1-dicyclopropyl-3-((2-fluoro-4-((1R,2S)-1-(2-methoxyacetamido)-1-(1-(2-(4-methylpiperazin-1-yl)ethyl)-1H-1,2,4-triazol-5-yl)propan-2-yl)phenyl)amino)-3-oxopropan-2-yl)-1-ethyl-1H-pyrazole-5-carboxamide] are 2220 nM, 182 nM and 2730 nM.
Turning to `CCn1nccc1C(=O)N[C@H](C(=O)Nc1ncc([C@H](C)[C@@H](NC(=O)COC)c2ncnn2CC2CC2)cc1F)C(C1CC1)C1CC1` [Compound 46, N-((S)-1,1-dicyclopropyl-3-((5-((1R,2S)-1-(1-(cyclopropylmethyl)-1H-1,2,4-triazol-5-yl)-1-(2-methoxyacetamido)propan-2-yl)-3-fluoropyridin-2-yl)amino)-3-oxopropan-2-yl)-1-ethyl-1H-pyrazole-5-carboxamide], the IC50 is 124 nM in experiment [1]; 29 nM at IL-17AA and IL-17RA; 159 nM in experiment [2].
For `[2H]C([2H])([2H])OCC(=O)N[C@@H](c1ncnn1CC1CC1)[C@@H](C)c1ccc(NC(=O)[C@@H](NC(=O)c2ccnn2CC)C(C2CC2)C2CC2)c(F)c1` [Compound 68, N-((S)-1,1-dicyclopropyl-3-((4-((1R,2S)-1-(1-(cyclopropylmethyl)-1H-1,2,4-triazol-5-yl)-1-(2-(methoxy-d3)acetamido)propan-2-yl)-2-fluorophenyl)amino)-3-oxopropan-2-yl)-1-ethyl-1H-pyrazole-5-carboxamide], in that order: 5.6 nM, 4.5 nM and 6.4 nM.
For `COCC(=O)N[C@@H](c1nncn1CC1CC1)[C@@H](C)c1ccc(NC(=O)[C@@H](NC(=O)COc2cc(C(F)F)on2)C(C2CC2)C2CC2)c(F)c1` [Compound 8], in that order: 35 nM, 13 nM and 73 nM.
In the same order, the values of `[2H]C([2H])([2H])n1ccc(C(=O)N[C@H](C(=O)Nc2ccc([C@H](C)[C@@H](NC(=O)CC)c3ncnn3CC3CC3)cc2F)C(C2CC2)C2CC2)n1` [Compound 86, N-((S)-1,1-dicyclopropyl-3-((4-((1R,2S)-1-(1-(cyclopropylmethyl)-1H-1,2,4-triazol-5-yl)-1-propionamidopropan-2-yl)-2-fluorophenyl)amino)-3-oxopropan-2-yl)-1-(methyl-d3)-1H-pyrazole-3-carboxamide] are 143 nM, 23 nM and 228 nM.
`CCC(=O)N[C@@H](c1ncn(CC2CC2)n1)[C@@H](C)c1ccc(NC(=O)[C@@H](NC(=O)c2nonc2C)C(C2CC2)C2CC2)c(F)c1` [Compound 81, N-((S)-1,1-dicyclopropyl-3-((4-((1R,2S)-1-(1-(cyclopropylmethyl)-1H-1,2,4-triazol-3-yl)-1-propionamidopropan-2-yl)-2-fluorophenyl)amino)-3-oxopropan-2-yl)-4-methyl-1,2,5-oxadiazole-3-carboxamide]: the IC50 in experiment [1] was determined as 9.4 nM; at IL-17AA and IL-17RA it was 4.5 nM; in experiment [2] it was 16 nM.
